Values quoted from earlier work in patent US10478399B2, “Modified release tablet composition comprising mirabegron” (SYNTHON B.V., priority 2017, dated 2019).

Assays:
[1] = presence of food in the GI tract
[2] = neutral to acidic pH

For Nc1nc(CC(=O)Nc2ccc(CCNC[C@H](O)c3ccccc3)cc2)cs1 [Mirabegron, (R)-2-(2-aminothiazol-4-yl)-4′-[2-[(2-hydroxy-2-phenylethyl)amino]ethyl]acetic acid anilide], the “effect of food on bioavailability” value [1] is given as “affected by the presence of food”, the “permeability (BCS)” value is given as “low permeability” and the “solubility (BCS)” value is given as “high solubility”. For the same compound, the solubility in water [2] was “soluble in water between neutral to acidic pH”.
